We go through 8 compounds from paper PMC8725971, “Polycyclic nitrogen heterocycles as potential thymidine phosphorylase inhibitors: synthesis, biological evaluation, and molecular docking study” (Journal of Enzyme Inhibition and Medicinal Chemistry, 2021).

≈ marks a conversion by molar mass, not a printed value. Counter-ions that a name gives are not always drawn.

For series [1], the target named is T1, E. coli TP (Escherichia coli, UniProt P07650).
T1 construct: purchased Sigma Aldrich T2807-1KU
As to the kind of experiment: Phosphate competition study. It is filed as biochemical. To be noted: saturating thymidine, phosphate 2–30 mM, compound at its IC50. The protocol: The synthesised compounds have been designed as TP inhibitors interacting with the thymidine fixation site. […] E. coli TP activity was determined in the presence of a saturating concentration of thymidine (equivalent to three times the value of the Michaelis-Menten constant [km][52]) and variable amounts of phosphate (2–30 mM). Tested compounds have been used at a concentration corresponding to the IC50.
For this study, the reaction mixture was composed of 160 µL of 10 mM Tris buffer (pH 7.4), 150 mM NaCl, 2 mM EDTA, 0.006 U of E. coli TP, different concentrations of KH2PO4 (2, 5, 10 and 30 mM). Compounds were tested at a concentration close to their IC50. The reaction was initiated by the addition of 20 µL of thymidine (3 mM and 10 mM solutions).

The target of series [2] is T1, E. coli TP. In words: In vitro E. coli thymidine phosphorylase inhibition, spectrophotometric assay at 290 nm. It is filed as biochemical. The conditions noted are these: for IC50: 300 µM thymidine, pH 7.4, 25 °C; for inhibition at 50 µM: compound at 50 µM, average of three measurements. The protocol:
The adopted protocol is a modification of the original method developed by Khan[51]. TP activity and inhibition assays were based on the phosphorolysis of thymidine to thymine, this conversion results in a significant spectrophotometric decrease. At 290 nm and pH 7.4, thymidine has a higher extinction coefficient than thymine (Δε = −480 M^−1 cm^−1). The absorbance at 290 nm was measured every 2 min for 30 min in 96-well plates at 25 °C.
Thymidine was dissolved in buffer (3 mM). […] All experiments were conducted in triplicate.
The method reported by Khan et al.[51] has been adapted to a screening in 96-well plates (200 µL well, UV-Star® 96-well microplate, Greiner). Each well contained 160 µL of 50 mM KH2PO4 buffer (pH 7.4), 0.006 U of E. coli TP (T2807-1KU, Sigma Aldrich), and 20 µL of the tested compound solution. […] The decrease in absorbance due to conversion of thymidine to thymine was followed during 30 min (PowerWave HT Microplate Reader, Biotek) at 25 °C, with one measure every 2 min and a 30 s shaking before each measure.

Series [3] in a line: Solubility in the incubation medium. The conditions noted are these: for solubility: aqueous buffer, kinetic from dmso stock; for Solubility (in words): incubation medium.
The target in series [4] is T1, E. coli TP. In words: Enzyme inhibition kinetic study (Lineweaver-Burk). The format is biochemical. The conditions noted are these: for Km values in the presence of inhibitor / Vmax values in the presence of inhibitor: increasing inhibitor concentration; for Type of TP inhibition: thymidine as substrate, Lineweaver-Burk plots. The protocol:
The percentage of TP inhibition was determined for different concentrations of the inhibitors and thymidine.
Figure 7. […] Results are presented as means ± SD; SD denoted by error bars (experiments carried out in triplicate).
The TP inhibiting activity at differents concentrations of compound 2d (0, 15, 20, 30 µM) and 2p (0, 4, 6, 8 µM) was evaluated in the presence of different concentrations of thymidine ([…]) in KH2PO4 buffer (pH 7.4).

Series [5] relates to epidermal carcinoma cells (A431). In words: Cell proliferation assay (MTT), A431. To be noted: Homo sapiens, 72 h, read-out: Growth inhibition, A431. It is filed as cell-based. The protocol: (§1) The inhibitory effect on cell proliferation was assessed using MTT assay[53] after 72 h of treatment through dose-response assays performed in the 100 µM to 0.1 µM concentration range. The results were expressed as percentages of growth inhibition.
(§2) Cell viability was determined on HUVEC and A431 cell lines using 3–(4,5-dimethylthiazol-2-yl)-2,5-diphenyltetrazolium bromide (MTT; Sigma-Aldrich) assay[53] after treatment with compounds 2d and 2p. A total of 5 × 10^3 cells/well (A431 cell line) or 10^4 cells/well (HUVEC cell line) were plated in a 96-well plate and treated, in duplicates, with compounds 2d and 2p at five concentrations (0.1 µM, 1 μM, 10 μM, 50 μM, 100 μM) for 72 h. Absorbance was read at 570 nm using Labsystem Multiskan MS microplate reader. The results were expressed as percentages of growth inhibition compared to positive control cell growth (100%).

Series [6] relates to human umbilical vein endothelial cells (HUVEC). In words: Cell proliferation assay (MTT), HUVEC. The format is cell-based. The conditions noted are these: 72 h, read-out: Growth inhibition, HUVEC. How it is done:
as §1, §2

A further series concerns hTP. Also on record: method as in PMID 27783978. The conditions noted are these: cited from earlier work.
A further series is described as follows: physchem. To be noted: aqueous buffer, kinetic from dmso stock.

T1 sequence (P07650 whole entry): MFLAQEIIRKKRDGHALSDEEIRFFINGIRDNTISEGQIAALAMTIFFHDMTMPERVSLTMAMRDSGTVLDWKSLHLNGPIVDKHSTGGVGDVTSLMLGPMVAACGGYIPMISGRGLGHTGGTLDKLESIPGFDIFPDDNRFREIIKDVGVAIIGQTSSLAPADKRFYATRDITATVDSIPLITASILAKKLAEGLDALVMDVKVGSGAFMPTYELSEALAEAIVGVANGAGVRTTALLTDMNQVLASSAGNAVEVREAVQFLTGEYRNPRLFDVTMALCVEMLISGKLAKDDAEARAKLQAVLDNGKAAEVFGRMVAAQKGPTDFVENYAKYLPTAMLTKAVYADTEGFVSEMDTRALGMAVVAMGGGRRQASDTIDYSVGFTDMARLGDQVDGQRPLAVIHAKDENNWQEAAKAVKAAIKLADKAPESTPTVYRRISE

Take `O=C(NCc1cc(=O)[nH]c(=O)[nH]1)c1cc2c(=O)[nH]c(=O)[nH]c2nc1C(=O)NCc1cc(=O)[nH]c(=O)[nH]1` [Compound 30, N^6,N^7-Bis((2,6-dioxo-1,2,3,6-tetrahydropyrimidin-4-yl)methyl)-2,4-dioxo-1,2,3,4-tetrahydropyrido[2,3-d]pyrimidine-6,7-dicarboxamide]: the melting point is 259 to 261 °C (dec.). Moreover, the “Binding to the phosphate site” value on E. coli TP [1] was “did not bind to the phosphate site”. Besides, on E. coli TP [2], the IC50 turned out to be 87 µM. In addition, at E. coli TP [2] (2.5% DMSO), at 50 µM the inhibition was 31%. Also, the solubility in series [3] is over 50 µM.

Take `O=C1c2cc3c(=O)[nH]c(=O)[nH]c3nc2C(=O)N1Cc1ccccc1` [Compound 28a]: the “Binding to the phosphate site” value on E. coli TP [1] was “did not bind to the phosphate site”. The IC50 against E. coli TP [2] stood at 62 µM. Moreover, the inhibition at 50 µM against E. coli TP [2] (2.5% DMSO) was 44%. Moreover, the solubility in [3] is over 50 µM.

For `O=C1c2cc3cc4c(cc3nc2C(=O)N1Cc1[nH]c(=O)[nH]c(=O)c1Br)OCO4` [Compound 23b, 2-[(5-Bromo-2,6-dioxo-1,2,3,6-tetrahydropyrimidin-4-yl)methyl]-6,7-methylenedioxy-1H-pyrrolo[3,4-b]quinoline-1,3(2H)-dione], the melting point is 370 to 372 °C (dec.). Further, the “Binding to the phosphate site” value on E. coli TP [1] was “did not bind to the phosphate site”. In addition, at E. coli TP [2] (2.5% DMSO), the inhibition at 50 µM was 30%. In [3], the concentration in solution (solubility) was 50 µM (≈ 22.3 µg/mL) and the “Solubility (in words)” value is reported as “less soluble”.

As to `COc1ccc2cc3c(=O)[nH]c(=O)[nH]c3nc2c1` [Compound 2d], at E. coli TP [4], the “Km values in the presence of inhibitor” value is “increased”, the “Vmax values in the presence of inhibitor” value is reported as “did not change significantly” and the “Type of TP inhibition” value was “competitive”. In addition, in series [5] (A-431, 50 µM), the inhibition at 50 µM came out at 57%. In addition, the inhibition at 100 µM in series [6] is 56%. The IC50 on E. coli TP [2] amounted to 28 µM. The inhibition at 50 µM on E. coli TP [2] (2.5% DMSO) worked out at 89%. In addition, in series [3], the solubility is over 50 µM.

Turning to `N=C1CCCN1Cc1[nH]c(=O)[nH]c(=O)c1Cl` [TPI, 5-chloro-6-[1-(2-iminopyrrolidinyl)methyl]uracil hydrochloride], the IC50 in the series with hTP is 0.035 µM.

For the compound `COc1ccc2c(C)c3c(=O)[nH]c(=O)[nH]c3nc2c1` [Compound 2p], the “Binding to the phosphate site” value on E. coli TP [1] is listed as “did not bind to the phosphate site”. Further, at E. coli TP [4], the “Km values in the presence of inhibitor” value was “increased”, the “Vmax values in the presence of inhibitor” value is “did not change significantly” and the “Type of TP inhibition” value was “competitive”. The inhibition at 100 µM in series [5] (A-431, 100 µM) is 50%. Further, the inhibition at 100 µM in series [6] came out at 31%. Also, the IC50 at E. coli TP [2] was found to be 26 µM. On E. coli TP [2] (2.5% DMSO), this compound showed an inhibition at 50 µM of 67%. For the same compound, in [3], the solubility was over 50 µM.

In the series “physchem”, `O=c1[nH]c(=O)c2cc3cc4c(cc3nc2[nH]1)OCO4` [Compound 2g] came in with a solubility of 15 µM (≈ 3.86 µg/mL). For the same compound, testing at 15 µM against E. coli TP [2] (compound at 15 µM (maximum solubility), 2.5% DMSO) gave an inhibition of 0%. Besides, the “Solubility (in words)” value in series [3] is listed as “sparingly soluble”.

For the compound `O=c1[nH]c(=O)c2cc3ccc(Cc4ccccc4)cc3nc2[nH]1` [Compound 2i, 8-Benzylpyrimido[4,5-b]quinoline-2,4(1H,3H)-dione], the melting point was 297 to 299 °C (dec.). The inhibition at 50 µM on E. coli TP [2] (2.5% DMSO) was found to be 30%. Also, the concentration in solution in [3] (solubility) was 50 µM (≈ 15.2 µg/mL).
